Assay results taken from PubChem BioAssay (NCI).
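Compound exposure: 48 hours, 5 concentrations, 96-well plates. Definition used: TGI = concentration required for complete inhibition of growth.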

System: HS 578T breast
Assay: growth of human tumour cells (NCI), 48 h

Row | Compound | TGI [µM]
1 | CC1(C)C[C@@H]2C1CCC1(C)CC2(O)CC[C@H]1O (stereo partly specified) | > 100
2 | CC(CC[C@@]1(C)C(=O)CCC2O[C@]21C)[C@H]1C[C@@H](c2ccoc2)OC1=O (stereo partly specified) | > 100

System: SK-OV-3 ovarian
Assay: growth of human tumour cells (NCI), 48 h

Row | Compound | TGI [µM]
3 | CC(C)=C[C@H]1CCC2(OCCO2)[C@]1(C)CO | > 100
4 | O=C(/C=C/c1ccc2ccccc2c1)NCc1ccc(C(=O)NCCc2ccccc2)cc1 | > 100
5 | CCOC(=O)CC(C)C1(C(=O)OCC)CCCCC1=O (stereo unspecified) | > 100
6 | Nc1nc(-[n+]2ccc(-c3ccncc3)cc2)nc(Cl)c1Cl | > 100
7 | CC(C)OC(=O)/C=C/C(=O)O/C=C/[N+](=O)[O-] | > 100
8 | CC(=O)O[C@H]1C(=O)[C@@]2(C)C(C(OC(=O)c3ccccc3)[C@]3(O)CC(OC(=O)C(O)C(NC(=O)c4ccc(C(F)(F)F)cc4)c4ccccc4)C(C)=C1C3(C)C)[C@]1(OC(C)=O)CO[C@@H]1C[C@@H]2O (stereo partly specified) | 0.946
9 | COC(=O)CC1N=C(NC#N)N(CCc2c[nH]c3ccccc23)C1=O (stereo unspecified) | > 100
10 | COC1=C(OC)C(=O)C(Cc2c(C)nc3sccn23)=C(C)C1=O | 26.8
11 | CCOc1ncn(-c2ccc(NC(=S)NC3OC(CO)C(O)C(O)C3O)cc2)n1 (stereo unspecified) | > 100
12 | Cn1c(O)c(C(=O)NC2CCCCC2)c(=O)n(C)c1=S | 23.8
13 | CC(C)=C[C@H]1CCC2(OCCO2)[C@]1(C)COCc1ccccc1 | > 100
14 | CC1(C)C[C@@H]2C1CCC1(C)CC2(O)CC[C@H]1O (stereo partly specified) | > 100
15 | c1ccc(CNc2nncc3[nH]cnc23)cc1 | > 100
16 | Nc1nc([O-])c2c(n1)[n+](C1OC(CO)C(O)C1O)cn2CCO (stereo unspecified) | > 100
17 | CC(CC[C@@]1(C)C(=O)CCC2O[C@]21C)[C@H]1C[C@@H](c2ccoc2)OC1=O (stereo partly specified) | > 100
18 | O=Cc1ccccc1COC(=O)c1cc(C(=O)OCc2ccccc2C=O)c(C(=O)OCc2ccccc2C=O)cc1C(=O)OCc1ccccc1C=O | > 100
19 | CCOC1=NC(O)c2cccn2-c2sccc21 (stereo unspecified) | > 100
20 | N#C/C(=C/NC(N)=S)C(N)=O | > 100
21 | CN(C)CC1CCCC(CN(C)C)C1OC(=O)c1ccccc1 (stereo unspecified) | > 100
22 | Cc1cc(N(CCC#N)CCC#N)ccc1/C=C(\NC(=O)/C=C/c1ccccc1)C(N)=O | > 100
23 | CN=C(SC)N(C)c1nc(=[N+](C)C)ss1 | > 100
24 | CCN(CC)CCSc1c2cc(OC)ccc2nc2ccc(OC)cc12 | > 54.4
25 | CCOC(=O)c1ccc(NCc2ccc3oc(=O)c(-c4ccccc4)nc3c2)cc1 | > 100
26 | CC(C)=CCC(O)[C@](C)(O)[C@H]1[C@H](O)C[C@@]2(C)[C@@H]3CCc4cc(O)c(OC5OC(CO)C(O)C(O)C5O)cc4C3(C)C(=O)C[C@]12C (stereo partly specified) | > 100
27 | C[Si](C)(C)OC1CC(=O)OC1n1cc(F)c(=O)[nH]c1=O (stereo unspecified) | > 100

System: HOP-62 NSCLC
Assay: growth of human tumour cells (NCI), 48 h

Row | Compound | TGI [µM]
28 | O=c1cc(-c2ccc(Oc3ccccc3)cc2)[nH]c2cc3c(cc12)OCO3 | > 100
29 | O=C(/C=C/c1ccc2ccccc2c1)NCc1ccc(C(=O)NCCc2ccccc2)cc1 | > 100
30 | CCOC(=O)CC(C)C1(C(=O)OCC)CCCCC1=O (stereo unspecified) | > 100
31 | Nc1nc(-[n+]2ccc(-c3ccncc3)cc2)nc(Cl)c1Cl | > 100
32 | CC(C)OC(=O)/C=C/C(=O)O/C=C/[N+](=O)[O-] | > 100
33 | CC(=O)O[C@H]1C(=O)[C@@]2(C)C(C(OC(=O)c3ccccc3)[C@]3(O)CC(OC(=O)C(O)C(NC(=O)c4ccc(C(F)(F)F)cc4)c4ccccc4)C(C)=C1C3(C)C)[C@]1(OC(C)=O)CO[C@@H]1C[C@@H]2O (stereo partly specified) | 0.506
34 | COC(=O)CC1N=C(NC#N)N(CCc2c[nH]c3ccccc23)C1=O (stereo unspecified) | > 100
35 | COC1=C(OC)C(=O)C(Cc2c(C)nc3sccn23)=C(C)C1=O | 34.8
36 | CCOc1ncn(-c2ccc(NC(=S)NC3OC(CO)C(O)C(O)C3O)cc2)n1 (stereo unspecified) | > 100
37 | Cn1c(O)c(C(=O)NC2CCCCC2)c(=O)n(C)c1=S | 16.8
38 | CC1(C)C[C@@H]2C1CCC1(C)CC2(O)CC[C@H]1O (stereo partly specified) | > 100
39 | c1ccc(CNc2nncc3[nH]cnc23)cc1 | > 100
40 | Nc1nc([O-])c2c(n1)[n+](C1OC(CO)C(O)C1O)cn2CCO (stereo unspecified) | > 100
41 | CC(CC[C@@]1(C)C(=O)CCC2O[C@]21C)[C@H]1C[C@@H](c2ccoc2)OC1=O (stereo partly specified) | > 100
42 | CCOC1=NC(O)c2cccn2-c2sccc21 (stereo unspecified) | > 100
43 | O=C1NC(=S)NC(=O)C1C(c1ccc(O)cc1)C1C(=O)NC(=S)NC1=O | > 100
44 | N#C/C(=C/NC(N)=S)C(N)=O | > 100
45 | CN(C)CC1CCCC(CN(C)C)C1OC(=O)c1ccccc1 (stereo unspecified) | > 100
46 | Cc1cc(N(CCC#N)CCC#N)ccc1/C=C(\NC(=O)/C=C/c1ccccc1)C(N)=O | > 100
47 | CN=C(SC)N(C)c1nc(=[N+](C)C)ss1 | > 100
48 | CCN(CC)CCSc1c2cc(OC)ccc2nc2ccc(OC)cc12 | > 75.4
49 | CCOC(=O)c1ccc(NCc2ccc3oc(=O)c(-c4ccccc4)nc3c2)cc1 | > 100
50 | CC(C)=CCC(O)[C@](C)(O)[C@H]1[C@H](O)C[C@@]2(C)[C@@H]3CCc4cc(O)c(OC5OC(CO)C(O)C(O)C5O)cc4C3(C)C(=O)C[C@]12C (stereo partly specified) | > 100
51 | C[Si](C)(C)OC1CC(=O)OC1n1cc(F)c(=O)[nH]c1=O (stereo unspecified) | > 100

System: LOX IMVI melanoma
Assay: growth of human tumour cells (NCI), 48 h

Row | Compound | TGI [µM]
52 | O=c1cc(-c2ccc(Oc3ccccc3)cc2)[nH]c2cc3c(cc12)OCO3 | > 100
53 | CC(C)=C[C@H]1CCC2(OCCO2)[C@]1(C)CO | > 100
54 | O=C(/C=C/c1ccc2ccccc2c1)NCc1ccc(C(=O)NCCc2ccccc2)cc1 | > 100
55 | CCOC(=O)CC(C)C1(C(=O)OCC)CCCCC1=O (stereo unspecified) | > 100
56 | Nc1nc(-[n+]2ccc(-c3ccncc3)cc2)nc(Cl)c1Cl | 33.2
